The values below come from patent US10407445B2, “Hepatitis C virus inhibitors” (ENANTA PHARMACEUTICALS, INC., priority 2013, dated 2019).

Type in all cases: cell-based
Test [1] relates to GT1a replicon encoding NS5A mutation L31V. The experiment in a line: Transient replication assay, GT1a replicon with NS5A mutation L31V. The conditions noted are these: Hepatitis C virus, read-out: EC50 1a L31V.
In test [2] the test system is HCV GT 3a replicon. The test is described as follows: HCV replicon assay, GT2a chimeric replicon expressing NS5A from GT3a strain S52. The note with it: Hepatitis C virus, 72 h, read-out: EC50 3a. In outline: (§1)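 Stable Huh-7.5 lines carried JFH-1 subgenomic replicons with hRluc-Neo reporter, in which NS5A was swapped for GT3a strain S52 or GT2a strain J6 NS5A. Renilla luciferase was read after 72 h relative to DMSO controls.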
On the technique in general: Replicon systems follow genome replication, usually without infectious particles.

Test [3] deals with GT1a replicon encoding NS5A mutation Q30R. The test is described as follows: Transient replication assay, GT1a replicon with NS5A mutation Q30R. The conditions noted are these: Hepatitis C virus, read-out: EC50 1a Q30R.
For test [4], the system named is GT1a replicon encoding NS5A mutation Y93C. The experiment in a line: Transient replication assay, GT1a replicon with NS5A mutation Y93C. The conditions noted are these: Hepatitis C virus, read-out: EC50 1a Y93C.
In test [5] the test system is HCV GT 2a-J6 replicon. The test is described as follows: HCV replicon assay, GT2a chimeric replicon expressing NS5A from GT2a strain J6. The conditions noted are these: Hepatitis C virus, 72 h, read-out: EC50 2a J6. The gist of the method:
as §1

Test [6] relates to HCV GT 1b replicon. The experiment in a line: HCV replicon assay, stable GT 1b replicon (Renilla luciferase). The conditions noted are these: Hepatitis C virus, GT1B, 72 h. The gist of the method: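 Stable Huh-7.5-based GT1b replicon (Con1-derived) carrying hRluc-Neo, 4000 cells/well seeded onto a sixteen-point half-log compound series in G418-free, phenol red-free medium. After 72 h, Renilla luciferase is read relative to DMSO controls; CC50 in the same cells by CellTiter-Glo.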

A word on the EC50: it is the concentration at which the effect is half-maximal. For the molecule `COC(=O)N[C@H](C(=O)N1C[C@]2(CCCOC2)C[C@H]1c1nc2ccc3cc(-c4ccc(-c5cnc([C@@H]6C[C@@H]7CCCC[C@@H]7N6C(=O)[C@@H](NC(=O)OC)C(C)C)[nH]5)cc4)ccc3c2[nH]1)C(C)C` [Compound 24], the concentration giving a half-maximal response (EC50) in test [1] turned out to be 0.07 nM; in test [2] it was 0.1 nM; in test [3], 0.02 nM; in test [4], 0.09 nM; in test [5], 0.3 nM; in test [6], 0.006 nM.

As for `COC(=O)N[C@H](C(=O)N1CCC[C@H]1c1nc2c([nH]1)-c1ccc(-c3ccc4c(ccc5nc([C@@H]6C[C@@]7(CCCOC7)CN6C(=O)[C@@H](NC(=O)OC)C(C)C)[nH]c54)c3)cc1OC2)C(C)C` [Compound 25], the EC50 in test [1] turned out to be 0.6 nM; in test [2], 0.6 nM; in test [3] it was 0.2 nM; in test [4], 0.09 nM; in test [5] it was 0.8 nM; in test [6], 0.068 nM.

On to `COC(=O)N[C@H](C(=O)N1C[C@]2(CCOC2)C[C@H]1c1ncc(-c2ccc(-c3ccc4c(ccc5nc([C@@H]6CCCN6C(=O)[C@@H](NC(=O)OC)C(C)C)[nH]c54)c3)cc2)[nH]1)C(C)C` [Compound 26], for which the EC50 came to 11 nM in test [1]; 2 nM in test [2]; 0.8 nM in test [3]; 0.8 nM in test [4]; 22 nM in test [5]; 0.022 nM in test [6].

`COC(=O)N[C@H](C(=O)N1C[C@@]2(CCCOC2)C[C@H]1c1ncc(-c2ccc(-c3ccc4c(ccc5nc([C@@H]6CCCN6C(=O)[C@@H](NC(=O)OC)C(C)C)[nH]c54)c3)cc2)[nH]1)C(C)C` [Compound 27]: the EC50 in test [1] is 0.1 nM; in test [2] it was 297 nM; in test [3] it was 0.06 nM; in test [4] it was 0.02 nM; in test [5] it was 50 nM; in test [6] it was 0.022 nM.

On to `COC(=O)N[C@H](C(=O)N1C[C@]2(CCCOC2)C[C@H]1c1ncc(-c2ccc(-c3ccc4c(ccc5nc([C@@H]6CC7(CC7)CN6C(=O)[C@@H](NC(=O)OC)C(C)C)[nH]c54)c3)cc2)[nH]1)C(C)C` [Compound 28], for which the EC50 came out at 0.3 nM in test [1]; 0.5 nM in test [2]; 0.06 nM in test [3]; 0.1 nM in test [4]; 13 nM in test [5]; 0.011 nM in test [6].

In the case of `COC(=O)N[C@H](C(=O)N1C[C@]2(CCCOC2)C[C@H]1c1ncc(-c2ccc(-c3ccc4c(ccc5nc([C@@H]6C[C@@H]7CCCC[C@@H]7N6C(=O)[C@@H](NC(=O)OC)C(C)C)[nH]c54)c3)cc2)[nH]1)C(C)C` [Compound 29], the EC50 in test [1] was 0.1 nM; in test [2], 0.3 nM; in test [3] it was 0.01 nM; in test [4], 0.1 nM; in test [5], 2 nM; in test [6], 0.004 nM.

In the case of `COC(=O)N[C@H](C(=O)N1C[C@]2(CCCOC2)C[C@H]1c1ncc(-c2ccc(-c3ccc4c(c3)OCc3nc([C@@H]5CCCN5C(=O)[C@@H](NC(=O)OC)C(C)C)[nH]c3-4)cc2)[nH]1)C(C)C` [Compound 30], the EC50 came out at 1 nM in test [1]; 2 nM in test [2]; 0.1 nM in test [3]; 0.5 nM in test [4]; 1 nM in test [5]; 0.045 nM in test [6].

As for `COC(=O)N[C@H](C(=O)N1C[C@]2(CCCOC2)C[C@H]1c1nc2ccc3cc(-c4ccc5c(ccc6nc([C@@H]7C[C@@]8(CCCOC8)CN7C(=O)[C@@H](NC(=O)OC)C(C)C)[nH]c65)c4)ccc3c2[nH]1)C(C)C` [Compound 31], the EC50 in test [1] was determined as 0.03 nM; in test [2] it was 0.1 nM; in test [3] it was 0.02 nM; in test [4], 0.007 nM; in test [5], 0.3 nM; in test [6], 0.058 nM.

`COC(=O)N[C@H](C(=O)N1C[C@]2(CCCOC2)C[C@H]1c1ncc(-c2ccc(-c3ccc(-c4cnc([C@@H]5C[C@@H]6CCCC[C@@H]6N5C(=O)[C@@H](NC(=O)OC)C(C)C)[nH]4)cc3)cc2)[nH]1)C(C)C` [Compound 32]: the EC50 amounted to 0.4 nM in test [1]; 2 nM in test [2]; 0.04 nM in test [3]; 0.5 nM in test [4]; 2 nM in test [5]; 0.006 nM in test [6].

`COC(=O)N[C@H](C(=O)N1CCC[C@H]1c1ncc(-c2ccc(-c3ccc4c(c3)OCc3nc([C@@H]5C[C@@]6(CCCOC6)CN5C(=O)[C@@H](NC(=O)OC)C(C)C)[nH]c3-4)cc2)[nH]1)C(C)C` [Compound 33]: the EC50 in test [1] was 0.3 nM; in test [2], 0.2 nM; in test [3], 0.2 nM; in test [4], 0.1 nM; in test [5], 1 nM; in test [6], 0.038 nM.

Regarding `COC(=O)N[C@H](C(=O)N1C[C@]2(CCCOC2)C[C@H]1c1nc2ccc3cc(-c4ccc(-c5cnc([C@@H]6C[C@@H]7COC[C@@H]7N6C(=O)[C@@H](NC(=O)OC)C(C)C)[nH]5)cc4)ccc3c2[nH]1)C(C)C` [Compound 34], the EC50 in test [1] is 0.08 nM; in test [2], 1.5 nM; in test [3] it was 0.02 nM; in test [4], 0.09 nM; in test [5] it was 0.7 nM; in test [6], 0.041 nM.

Take `COC(=O)N[C@H](C(=O)N1C[C@]2(CCCOC2)C[C@H]1c1ncc(-c2ccc(-c3ccc4c(ccc5nc([C@@H]6C[C@@H]7COC[C@@H]7N6C(=O)[C@@H](NC(=O)OC)C(C)C)[nH]c54)c3)cc2)[nH]1)C(C)C` [Compound 35]: the EC50 in test [1] was 0.5 nM; in test [2], 2 nM; in test [3], 0.07 nM; in test [4], 0.4 nM; in test [5], 2 nM; in test [6], 0.049 nM.

On to `COC(=O)N[C@H](C(=O)N1C[C@]2(CCCOC2)C[C@H]1c1nc2ccc3cc(-c4ccc5c(ccc6nc([C@@H]7C[C@@H]8COC[C@@H]8N7C(=O)[C@@H](NC(=O)OC)C(C)C)[nH]c65)c4)ccc3c2[nH]1)C(C)C` [Compound 36], for which the concentration giving a half-maximal response (EC50) in test [1] stood at 0.2 nM; in test [2] it was 1 nM; in test [3], 0.04 nM; in test [4], 0.06 nM; in test [5] it was 0.3 nM; in test [6], 0.051 nM.

Take `COC(=O)N[C@H](C(=O)N1C[C@]2(CCCOC2)C[C@H]1c1ncc(-c2ccc(-c3ccc(-c4cnc([C@@H]5C[C@@H]6CCC[C@@H]6N5C(=O)[C@@H](NC(=O)OC)C(C)C)[nH]4)cc3)cc2)[nH]1)C(C)C` [Compound 37]: the EC50 in test [1] was determined as 0.5 nM; in test [2] it was 3 nM; in test [3], 0.02 nM; in test [4] it was 1 nM; in test [5] it was 0.7 nM; in test [6], 0.009 nM.

`COC(=O)N[C@H](C(=O)N1C[C@]2(CCCOC2)C[C@H]1c1ncc(-c2ccc(-c3ccc4c(c3)CCCc3nc([C@@H]5C[C@@H]6CCCC[C@@H]6N5C(=O)[C@@H](NC(=O)OC)C(C)C)[nH]c3-4)cc2)[nH]1)C(C)C` [Compound 40]: the EC50 in test [1] is 1 nM; in test [2], 44 nM; in test [3] it was 0.05 nM; in test [4] it was 0.7 nM; in test [5], 55 nM; in test [6], 0.008 nM.

With `COC(=O)N[C@H](C(=O)N1C[C@]2(CCCOC2)C[C@H]1c1ncc(-c2ccc(-c3ccc4c(c3)OCc3nc([C@@H]5C[C@@H]6CCCC[C@@H]6N5C(=O)[C@@H](NC(=O)OC)C(C)C)[nH]c3-4)cc2)[nH]1)C(C)C` [Compound 42], the concentration for a half-maximal effect (EC50) is 0.2 nM in test [1]; 1 nM in test [2]; 0.05 nM in test [3]; 0.6 nM in test [4]; 2 nM in test [5]; 0.006 nM in test [6].

With `COC(=O)N[C@H](C(=O)N1CCC[C@H]1c1ncc(-c2ccc(-c3ccc4c(ccc5nc([C@@H]6C[C@@]7(CCCOC7)CN6C(=O)[C@@H](NC(=O)OC)C(C)C)[nH]c54)c3)cc2)[nH]1)C(C)C` [Compound 44], the EC50 in test [1] turned out to be 0.6 nM; in test [2] it was 0.06 nM; in test [3], 0.1 nM; in test [4] it was 0.2 nM; in test [5], 1 nM; in test [6] it was 0.016 nM.

With `COC(=O)N[C@H](C(=O)N1C[C@]2(CCCOC2)C[C@H]1c1ncc(-c2ccc(-c3ccc4c(ccc5nc([C@@H]6CCCN6C(=O)[C@@H](NC(=O)OC)C(C)C)[nH]c54)c3)cc2)[nH]1)C(C)C` [Compound 47], the EC50 in test [1] stood at 1 nM; in test [2], 0.08 nM; in test [3], 0.1 nM; in test [4] it was 0.3 nM; in test [5], 0.6 nM; in test [6], 0.016 nM.

Turning to `COC(=O)N[C@H](C(=O)N1CCC[C@H]1c1nc2ccc3cc(-c4ccc5c(ccc6nc([C@@H]7C[C@@]8(CCCOC8)CN7C(=O)[C@@H](NC(=O)OC)C(C)C)[nH]c65)c4)ccc3c2[nH]1)C(C)C` [Compound 48], the EC50 in test [1] stood at 0.5 nM; in test [2], 0.07 nM; in test [3], 0.05 nM; in test [4] it was 0.02 nM; in test [5] it was 0.03 nM; in test [6], 0.009 nM.

As for `COC(=O)N[C@H](C(=O)N1C[C@@]2(CCOC2)C[C@H]1c1ncc(-c2ccc(-c3ccc4c(ccc5nc([C@@H]6C[C@]7(CCOC7)CN6C(=O)[C@@H](NC(=O)OC)C(C)C)[nH]c54)c3)cc2)[nH]1)C(C)C` [Compound 49], the EC50 in test [1] stood at 5 nM; in test [2], 5 nM; in test [3] it was 0.2 nM; in test [4], 0.4 nM; in test [5] it was 23 nM; in test [6], 0.009 nM.
